# Measured values taken from patent publication US5696108A, “Protein kinase C inhibitors” (Eli Lilly and Company, priority 1996, dated 1997).
# Entries after “also recorded” stand apart in the source; their conditions may differ. Where a name gives a salt, the structure may show the parent alone.
# Key:
# protein kinase C = details: literature; cited from earlier work
# PKC gamma = PKC gamma (Homo sapiens, UniProt P05129); assay: PKC Enzyme Assay, gamma isozyme; type: biochemical; details: Table 2; read-out: Isozymes ED50 γ
# Method: (§1) PKC enzymes=alpha, beta I, beta II, gamma, delta, epsilon, eta and zeta.
# (§2) Assay components in a total volume of 250 μL are as follows:
# (§3) For all the enzymes either histone type HL (Worthington) or myelin basic protein is used as substrate. The assay is started by addition of protein kinase C enzyme incubated at 30° C. for 10 minutes and stopped by adding 0.5 mL of cold trichloroacetic acid (Amresco) followed by 100 μL of 1 mg/mL bovine serum albumin (Sigma, St. Louis, Mo.). The precipitate is collected by vacuum filtration on glass fiber filters employing a TOMTEC™ filtration system and quantified by counting in a beta scintillation counter.
# [1] = target: T1, cAMP-dependent kinase catalytic subunit (Bos taurus, UniProt P00517); assay: cAMP-Dependent protein Kinase Catalytic Subunit Assay; type: biochemical, bovine; details: Table 1
# T1 construct: purchased Sigma, St. Louis, Mo; host or cells: bovine heart
# Method: cAMP-Dependent protein Kinase Catalytic Subunit Assay (PEA) The Assay components are in a total volume of 250 μL: 20 mM HEPES (Sigma, St. Louis, Mo.) buffer pH 7.5, 200 μg/mL histone type HL (Worthington), 10 mM magnesium chloride (Sigma, St. […] The reaction is initiated by addition of bovine heart cAMP-dependent kinase catalytic subunit (Sigma, St. Louis, Mo.), incubated to 30° C. for 10 minutes and stopped by adding 0.5 mL ice cold Trichloroacetic acid (Amresco) followed by 100 μL of 1 mg/mL bovine serum albumin (Sigma). The precipitate is collected by vacuum filtrated on glass fiber filters employing a TOMTEC™ and quantified by counting in a beta scintillation counter. This assay is done identical to the protein kinase C (PKC) enzyme assay except that no phospholipids or diacylglycerol are employed in the assay and the histone substrate is specific for the cAMP-dependent catalytic subunit enzyme.
# PKC eta = PKC eta (Homo sapiens, UniProt P24723); assay: PKC Enzyme Assay, eta isozyme; type: biochemical; details: Table 2; read-out: Isozymes ED50 eta
# Sequence of PKC eta (P24723 whole entry): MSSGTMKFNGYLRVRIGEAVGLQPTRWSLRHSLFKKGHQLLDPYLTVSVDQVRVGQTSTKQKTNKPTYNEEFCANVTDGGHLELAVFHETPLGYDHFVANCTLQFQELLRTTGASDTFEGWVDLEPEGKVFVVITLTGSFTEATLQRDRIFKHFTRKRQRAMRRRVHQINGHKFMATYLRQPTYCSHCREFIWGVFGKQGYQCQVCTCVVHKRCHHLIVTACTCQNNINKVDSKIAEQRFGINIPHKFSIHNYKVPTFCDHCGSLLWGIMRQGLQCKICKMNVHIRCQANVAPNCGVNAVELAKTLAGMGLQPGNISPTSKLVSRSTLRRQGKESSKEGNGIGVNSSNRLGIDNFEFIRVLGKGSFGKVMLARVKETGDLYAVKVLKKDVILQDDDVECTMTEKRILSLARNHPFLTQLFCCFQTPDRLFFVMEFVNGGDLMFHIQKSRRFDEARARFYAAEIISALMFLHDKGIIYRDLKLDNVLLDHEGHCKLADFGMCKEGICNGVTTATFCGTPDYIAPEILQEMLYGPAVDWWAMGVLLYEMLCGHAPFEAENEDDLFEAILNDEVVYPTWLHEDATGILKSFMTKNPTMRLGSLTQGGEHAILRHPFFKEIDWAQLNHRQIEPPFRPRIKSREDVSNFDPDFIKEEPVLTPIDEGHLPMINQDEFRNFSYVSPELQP
# Method: as §1, §2, §3
# casein protein kinase II = target: T2, casein protein kinase II (Rattus norvegicus, UniProt P19139); assay: Casein Protein Kinase II Assay (CK-II); type: biochemical; details: Table 1
# T2 construct: isolated from rat brain homogenate; from tissue; host or cells: rat brain homogenate
# T2 sequence (P19139 whole entry): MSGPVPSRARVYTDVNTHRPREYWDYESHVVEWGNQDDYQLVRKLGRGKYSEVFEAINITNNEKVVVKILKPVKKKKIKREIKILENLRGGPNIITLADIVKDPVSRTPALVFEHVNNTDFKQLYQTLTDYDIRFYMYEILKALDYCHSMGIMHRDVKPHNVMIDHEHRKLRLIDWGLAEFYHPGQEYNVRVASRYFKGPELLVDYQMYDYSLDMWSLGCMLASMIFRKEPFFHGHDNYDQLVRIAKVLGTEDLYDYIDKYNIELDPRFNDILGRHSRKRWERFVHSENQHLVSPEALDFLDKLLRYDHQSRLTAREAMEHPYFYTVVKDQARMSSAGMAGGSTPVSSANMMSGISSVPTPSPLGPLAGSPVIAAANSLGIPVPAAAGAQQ
# T2 sequence (P67874 2-215 partner limits assumed): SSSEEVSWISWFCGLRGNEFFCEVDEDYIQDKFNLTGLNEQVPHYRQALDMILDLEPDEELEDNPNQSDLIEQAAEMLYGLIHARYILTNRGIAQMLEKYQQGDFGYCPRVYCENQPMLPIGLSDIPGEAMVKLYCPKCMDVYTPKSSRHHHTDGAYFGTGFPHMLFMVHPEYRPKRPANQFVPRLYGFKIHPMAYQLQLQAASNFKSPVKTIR
# Method: Casein Protein Kinase II Assay (CK-II)
# The Casein Protein Kinase II Assay is described in Neurochem. […] The assay components are in a total volume of 250 μL: 20 mM Tris-HCl, pH 7.5, 5 mM sodium fluoride, 50 mg/mL Casein (Sigma, St. Louis, Mo.), 10 mM magnesium chloride (Sigma, St. Louis, Mo.), 10 μL DMSO or DMSO/inhibitor and 30 μm (gamma-32P) ATP (DuPont). Initiation of the reaction is performed by addition of casein protein kinase II (isolated from rat brain homogenate), incubated at room temperature for 10 minutes and stopped by the addition of 0.5 mL ice cold Trichloroacetic acid (Amresco) followed by 100 μL of 1 mg/mL bovine serum albumin (Sigma, St. Louis, Mo.). The precipitate is collected by vacuum filtration on glass fiber filters and quantified by counting in a beta scintillation counter.
# Assay components in order of addition
# 10 μL or DMSO or DMSO/inhibitor
# 25 μL of AT32P in 300 μM magnesium chloride
# 40 μL of enzyme (undiluted)
# Buffer prepared as follows:
# (Final volume=3.5 mL: amount of 20 assays)
# [2] = target: calcium calmodulin dependent protein kinase; assay: Calcium Calmodulin Dependent Protein Kinase Assay (CAM); type: biochemical, rat; details: Table 1
# Method: Calcium Calmodulin Dependent Protein Kinase Assay (CAM)
# The reaction is initiated by the addition of calcium calmodulin dependent protein kinase (isolated from rat brain homogenate), incubated at room temperature for 10 minutes and stopped by adding 0.5 mL ice cold trichloroacetic acid (Amresco) followed by 100 μL of 1 mg/mL bovine serum albumin (Sigma, St. Louis, Mo.). The precipitate is collected by vacuum filtration on glass fiber filters and quantified by counting in a beta scintillation counter.
# 25 μL calmodulin (250 μg/mL)
# 10 μL DMSO or DMSO/inhibitor
# src = target: T3, src (Homo sapiens, UniProt P12931); assay: Protein Tyrosine Kinase Assay (src); type: biochemical; details: Table 1
# T3 construct: purchased Onogene Science, Inc. PK02 and PK03
# T3 sequence (P12931 whole entry, species assumed): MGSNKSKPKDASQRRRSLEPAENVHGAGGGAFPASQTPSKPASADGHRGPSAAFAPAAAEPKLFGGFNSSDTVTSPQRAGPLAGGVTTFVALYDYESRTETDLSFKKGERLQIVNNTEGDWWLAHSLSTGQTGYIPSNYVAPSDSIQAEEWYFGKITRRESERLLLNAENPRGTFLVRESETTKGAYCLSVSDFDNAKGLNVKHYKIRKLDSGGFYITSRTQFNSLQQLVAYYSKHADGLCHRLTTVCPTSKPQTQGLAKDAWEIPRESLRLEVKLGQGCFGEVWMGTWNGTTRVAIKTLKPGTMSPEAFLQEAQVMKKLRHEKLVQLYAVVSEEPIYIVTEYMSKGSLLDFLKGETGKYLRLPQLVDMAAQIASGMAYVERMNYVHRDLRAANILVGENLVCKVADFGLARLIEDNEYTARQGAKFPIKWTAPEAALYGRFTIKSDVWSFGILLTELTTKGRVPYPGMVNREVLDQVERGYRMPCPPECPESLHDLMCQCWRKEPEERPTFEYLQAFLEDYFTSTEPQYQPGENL
# Method: Protein Tyrosine Kinase Assay (src)
# The Assay components are the following:
# 4 μL DMSO or DMSO/inhibitor
# PKC-β1 = PKC-β1 (Homo sapiens, UniProt P05771); assay: PKC Enzyme Assay, beta-1 isozyme; type: biochemical; details: Table 1
# Sequence of PKC-β1 (P05771 whole entry): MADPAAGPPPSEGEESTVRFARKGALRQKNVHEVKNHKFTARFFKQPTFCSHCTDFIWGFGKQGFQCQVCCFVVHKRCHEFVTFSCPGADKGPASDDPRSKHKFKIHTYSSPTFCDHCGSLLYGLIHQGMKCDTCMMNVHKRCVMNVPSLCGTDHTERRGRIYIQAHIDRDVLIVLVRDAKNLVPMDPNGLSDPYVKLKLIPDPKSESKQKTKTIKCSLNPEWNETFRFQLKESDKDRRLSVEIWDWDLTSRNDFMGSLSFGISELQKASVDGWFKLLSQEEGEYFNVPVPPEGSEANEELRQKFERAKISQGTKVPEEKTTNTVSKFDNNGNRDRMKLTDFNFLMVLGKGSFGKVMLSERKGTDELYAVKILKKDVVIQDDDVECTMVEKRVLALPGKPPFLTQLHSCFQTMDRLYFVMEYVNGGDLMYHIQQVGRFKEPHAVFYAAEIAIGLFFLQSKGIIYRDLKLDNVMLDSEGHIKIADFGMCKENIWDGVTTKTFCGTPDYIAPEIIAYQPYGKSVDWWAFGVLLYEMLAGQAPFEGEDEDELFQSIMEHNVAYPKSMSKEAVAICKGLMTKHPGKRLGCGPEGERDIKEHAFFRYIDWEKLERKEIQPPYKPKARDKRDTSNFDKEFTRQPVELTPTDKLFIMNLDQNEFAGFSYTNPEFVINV
# Method: as §1, §2, §3
# PKC-α = PKC-α (Homo sapiens, UniProt P17252); assay: PKC Enzyme Assay, alpha isozyme; type: biochemical; details: Table 1
# Method: as §1, §2, §3
# PKC-β2 = PKC-β2 (Homo sapiens, UniProt P05771); assay: PKC Enzyme Assay, beta-2 isozyme; type: biochemical; details: Table 1
# Sequence of PKC-β2 (P05771 1-673 isoform P05771-2): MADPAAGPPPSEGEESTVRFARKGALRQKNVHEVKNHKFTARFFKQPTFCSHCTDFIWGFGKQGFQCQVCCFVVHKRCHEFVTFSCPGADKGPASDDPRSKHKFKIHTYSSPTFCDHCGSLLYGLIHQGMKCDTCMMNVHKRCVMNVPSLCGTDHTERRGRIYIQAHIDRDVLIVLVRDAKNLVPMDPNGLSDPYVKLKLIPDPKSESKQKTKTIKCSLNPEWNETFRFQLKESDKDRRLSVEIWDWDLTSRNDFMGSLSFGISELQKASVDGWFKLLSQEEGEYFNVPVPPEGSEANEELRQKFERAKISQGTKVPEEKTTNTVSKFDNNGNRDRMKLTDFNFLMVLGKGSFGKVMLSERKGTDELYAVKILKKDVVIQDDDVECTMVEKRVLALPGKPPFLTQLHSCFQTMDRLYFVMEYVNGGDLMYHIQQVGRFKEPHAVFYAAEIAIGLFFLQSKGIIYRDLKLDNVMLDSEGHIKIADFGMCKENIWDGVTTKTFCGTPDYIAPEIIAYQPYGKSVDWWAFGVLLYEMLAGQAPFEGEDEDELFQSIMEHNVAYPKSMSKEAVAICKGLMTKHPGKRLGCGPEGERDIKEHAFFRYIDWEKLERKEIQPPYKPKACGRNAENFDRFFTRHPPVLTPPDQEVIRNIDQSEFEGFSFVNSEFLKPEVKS
# Method: as §1, §2, §3
# [3] = from CN1C(=O)C(c2c[nH]c3ccccc23)=C(c2cn(CCCOC(CCI)CO[Si](c3ccccc3)(c3ccccc3)C(C)(C)C)c3ccccc23)C1=O; amine bond; cesium carbonate; DMF; 5.85 mM; 83.0 h
IC50 [1] [µM],IC50 (casein protein kinase II) [µM],IC50 [2] [µM],IC50 (src) [µM],IC50 (PKC-β1) [nM],IC50 (PKC-α) [µM],IC50 (PKC-β2) [nM],Structure (SMILES),isozyme selectivity (protein kinase C),IC50 (PKC gamma) [nM],IC50 (PKC eta) [nM],"ring closure, yield of all isomers [3] [%]"
> 100,> 100,26,58,350,3,160,NCC1CCn2cc(c3ccccc32)C2=C(C(=O)NC2=O)c2cn(c3ccccc23)CCCO1 (centres unmarked) [Example 9],–,–,–,–
> 100,> 100,> 100,> 100,500,> 100,600,O=C1NC(=O)C2=C1c1cn(c3ccccc13)CCCCCCCn1cc2c2ccccc21 [Example 42],–,–,–,–
> 100,> 100,0.47,> 100,20,0.3,30,"O=C1NC(=O)C2=C1c1cn(c3ccccc13)CCCC(CO)CCn1cc2c2ccccc21 (centres unmarked) [Example 31, 3,4-[(N,N'-1,1'-(3""-(hydroxy)methylene)hexane)-bis-(3,3'-indolyl)]-1H-pyrrole-2,5-dione]",–,–,–,–
> 100,> 100,2.2,> 100,32,0.48,30,CC(=O)NC[C@H]1CCn2cc(c3ccccc32)C2=C(C(=O)NC2=O)c2cn(c3ccccc23)CCO1 [Example 19r],–,–,–,–
> 100,> 100,20,> 100,300,5,100,CN(C)CC1CCn2cc(c3ccccc32)C2=C(C(=O)NC2=O)c2cn(c3ccccc23)CCCO1 (centres unmarked) [Example 11],–,–,–,–
> 100,> 100,> 100,> 100,600,10,400,O=C1CCCn2cc(c3ccccc32)C2=C(C(=O)NC2=O)c2cn(c3ccccc23)CCC1 [Example 49],–,–,–,–

# The next lines start with the compound.
Structure (SMILES),IC50 [1] [µM],IC50 (casein protein kinase II) [µM],IC50 [2] [µM],IC50 (src) [µM],IC50 (PKC-β1) [nM],IC50 (PKC-α) [µM],IC50 (PKC-β2) [nM],isozyme selectivity (protein kinase C),IC50 (PKC gamma) [nM],IC50 (PKC eta) [nM],"ring closure, yield of all isomers [3] [%]"
"CN(C)CCCn1cc(C2=C(c3c[nH]c4ccccc34)C(=O)NC2=O)c2ccccc21 [3-[1-(3-dimethylaminopropyl)-indol-3-yl]-4-(1H-indol-3-yl)-1H-pyrrole-2,5-dione]",–,–,–,–,–,–,–,"slight selectivity for the calcium dependent isozymes; also recorded: no difference, or possibly slight selectivity, for alpha over beta-1 and beta-2 isozymes",–,–,–
CN(C)CC1CCn2cc(c3ccccc32)C2=C(C(=O)NC2=O)c2cn(c3ccccc23)CCO1 (centres unmarked) [Example 5],> 100,> 100,4,–,–,–,–,–,230,35,–
CN1C(=O)C2=C(C1=O)c1cn(c3ccccc13)CCC(CO[Si](c1ccccc1)(c1ccccc1)C(C)(C)C)OCCCn1cc2c2ccccc21 (centres unmarked),–,–,–,–,–,–,–,–,–,–,97
"O=C1NC(=O)C2=C1c1cn(c3ccccc13)CCC[C@@H](CN1CCCC1)CCn1cc2c2ccccc21 [Example 36r, (R)-3,4-[(N,N'-1,1'-(3""-(N-pyrrolidino)methylene)-hexane)-bis-(3,3""-indolyl)]-1H-pyrrole-2,5-dione hydrochloride salt]",> 100,> 100,7.1,61,5,0.45,14,–,–,–,–
